We go through nine molecules from US20060078890A1, “Methods for identifying parkinson's disease therapeutics” (priority 2004, published 2006).

Series [1] has as its system PC12-αSyn cells. Description: MPP+ toxicity in α-synuclein overexpressing PC12 cells, cell death by LDH release. The settings on record: for LDH release (cell death) induced by MPP+ toxicity; neuroprotective effect: PC12-αSyn cells pretreated for two hours prior to 1 mM MPP+ for 24 hours, increasing concentrations. In kind it is cell-based. As to the method: A PC12 cell line was transfected to express wild type human α-synuclein using the Tet-Off system (Clontech Laboratories, Palo Alto, Calif.). α-Synuclein expression was suppressed using 1 μg/mL doxycycline (Clontech) in culture media before expression is required. α-Synuclein expressing PC12 cells (PC12-αSyn) were grown in Dulbecco's modified Eagle's medium (DMEM) (Invitrogen, Calsbad, Calif.) supplemented with 10% heat-inactivated horse serum, 5% heat-inactivated fetal calf serum (Hyclone, Logan, Utah), 4 mM L-glutamine, streptomycin, and penicillin G (Fisher, Pittsburgh, Pa.). Cells were maintained at 37° C., in 5% CO2 humid atmosphere.
The effects of various neuroprotective agents were examined in the PC12-αSyn cell line. To determine MPP^+ neurotoxicity in α-synuclein- and naïve PC12 cells, cell death was measured by LDH release assays.
(§1) Cell death will be assessed by quantifying intra- and extracellular lactate dehydrogenase (LDH). The ratio between the amount of LDH released and the amount remaining in the cells produces a measure of cell death. [formula]
(§2) A sample of the medium will be the extracellular LDH sample. Cells were washed with PBS and extracted in cell lysis buffer (50 mM Tris pH 8.0, 150 mM NaCl, 5 mM EDTA, 1% Triton X-100, 10 μg/ml Aprotinin, 25 μg /ml Leupeptin, 10 μg/ml Pepstatin, 1 mM PMSF; all protease inhibitors purchased from Sigma Chemicals, St. Louis, Mo.). The cell homogenate were centrifuged at 4° C. for 3 minutes at 14,000 rpm. The supernatant were taken for intracellular LDH sample. LDH activity will be quantified using an LDH assay kit (Roche, Indianapolis, Ind.).
Background: LDH leaks from cells whose membrane has failed.

Series [2] relates to TH-positive/GIRK2-positive dopaminergic neurons of primary VM culture. Description: MPP+ toxicity in primary ventral mesencephalic (VM) culture, stereological count of TH-positive/GIRK2-positive neurons. Format: cell-based, rat. The settings on record: for protective effect against MPP+ toxicity on GIRK2-positive/TH-positive neurons: pretreated 2 hours prior to 10 μM MPP+. As to the method:
VMDA cultures were obtained from E15 Sprague-Dawley rat (Charles River, Mass.) ventral mesencephalon (VM). Tissue was mechanically dissociated with a pasteur pipette. The cells were resuspended in DMEM containing heat-inhibited horse serum (10%), glucose (6.0 mg/ml), penicillin, streptomycin, and 2 mM glutamine (Gibco). Cell suspensions containing 4×10^5 cells were plated on a coverslip in a 24-well plate, precoated with a 1:500 diluted solution of polyornithine and fibronectin in 50 mM sodium borate (pH 7.4) overnight.
These cultures contained a mixed cell population having approximately 40% of TH-positive neurons at 5 days in vitro (DIV) with both A9- and A10-like dopaminergic neurons (FIG. 4A). […] The cultures were treated with MPP^+ at day 5 for 48 hours using concentrations ranging from 0.1 to 10 μM. Cells were fixed with paraformaldehyde for immunostaining of TH and GIRK2 48 hours after MPP^+ treatment.
The cultures were pretreated with the polypeptide factors 2 hours prior to 10 μM MPP^+ treatment.
Routine indirect immunofluorescence was performed on 4% paraformaldehyde fixed VM culture. The fixed cells were incubated in a blocking solution consisting of 10% normal donkey serum (Jackson Immuno Research Laboratories Inc, West Grove, Pa.) and 0.1% Triton X-100 (Sigma, St. Louis, Mo.) in 0.1M phosphate buffered saline (PBS) for 1 hour at room temperature before transferring to the primary antibody solution. The primary antibodies were diluted in blocking solution and the cells were incubated overnight at 4° C. The primary antibodies used were raised against tyrosine hydroxylase (sheep anti-TH, 1:300, Pel-Freez Biologicals, Rogers, Ak.) and GIRK2 (rabbit; 1:80, Alomone Laboratories, Jerusalem, Israel). The cells were rinsed three times in 0.1 M PBS for five minutes each before the application of the secondary antibody solution for one hour at room temperature. The secondary antibodies were diluted in 10% normal donkey serum in 0.1M PBS. The secondary antibodies were conjugated to spectrally distinct fluorescent dyes to facilitate color separation (Alexa Fluor 488 conjugated donkey anti-sheep and Alexa Fluor 594 conjugated donkey anti-rabbit, Molecular Probes, Eugene, Oreg.). After rinsing in triplicate for ten minutes each in 0.1 M PBS, the cells were counterstained with 0.0005% Hoechst 33342 (Molecular Probes) in 0.1M Tris buffered saline. The coverslips containing the fixed cells were then rinsed in 0.1M PBS followed by distilled water and mounted onto slides using an aqueous mountant (Gel/Mount, Biømeda Corp., Calif.). Control coverslips immunostained without primary antibody were used to assess specificity of the technique.
Design based stereology was performed by counters blinded to experimental groups on the stained coverslips using an integrated Axioskop 2 microscope (Carl Zeiss, Thornwood, N.Y.) and Stereoinvestigator image capture equipment and software (MicroBrightField, Williston, Vt.). A contour was drawn around each coverslip to identify the area of interest. A physical disector probe was utilized and counting frames were placed in a systematically random manner at approximately 125 sites per coverslip. The resultant coefficient of error for the stereological counts was used to assess precision (p<0.05).

Series [3] has as its system DAN cells. Description: MPP+ toxicity in human dopaminergic neuron precursor (DAN) cells, LDH release. The settings on record: for LDH release (cell death) in MPP+ treated DAN cells: pretreated for two hours prior to MPP+ (1 mM). Format: cell-based.
From the text: DAN cells, which have been used to study neurodegeneration, can be used in the methods of this invention; they express multiple genes of Tables 4 and/or 5, and the expression of these genes following contact with a candidate compound can be measured. […] DAN cells are sensitive to the neurotoxin MPP^+.
as §1, §2

Series [4] relates to dopaminergic neurons in the substantia nigra. Description: Progressive 6-OHDA lesioned rats, TH immunohistochemistry of striatum and substantia nigra. Format: in vivo, rat. The settings on record: unilateral intrastriatal 6-OHDA, total dose 22.5 μg; up to 28 days. As to the method:
Female Sprague Dawley rats (200-250 g, Charles River, Wilmington, Mass.) receive unilateral intrastriatal stereotaxic injections of 6-OHDA (Sigma, St. Louis, USA) using a 10 μl Hamilton syringe. Intramuscular injections of Acepromazine (3.3 mg/kg, PromAce, Fort Dodge, Iowa) and atropine sulfate (0.2 mg/kg, Phoenix Pharmaceuticals, St. Joseph, Mo.) is given 10 minutes before animals will be anesthetized with ketamine/xylazine (60 mg/kg and 3 mg/kg respectively, i.m.). A concentration of 3.0 μg/μl free base 6-OHDA dissolved in 0.2% ascorbic acid/saline (Sigma) is injected into 3 locations (2.5 μl/site, total dose 22.5 μg) in the right striatum at the following coordinates (calculated from bregma): site 1, AP+1.3, L−2.8, DV−4.5, IB−2.3; site 2, AP+0.2, L−3.0, DV−5.0, IB−2.3; site 3, AP−0.6, L−4.0, DV−5.5, IB−2.3 mm.

“Also recorded” adds a separate entry of the source. Ends that are not written are not given here.

Regarding “calcitonin/calcitonin gene-related peptide alpha [CGRP]”, the “LDH release (cell death) induced by MPP+ toxicity; neuroprotective effect” value (“LDH release … neuroprotective effect” below) in series [1] is recorded as “Significant dose-dependent reductions in LDH release; also recorded: dose-dependent neuroprotective effects”.
Take “NT-3: neurotrophic factor known to have elevated expression in A10 dopaminergic neurons”: the “LDH release … neuroprotective effect” value in series [1] is recorded as “Significant dose-dependent reductions in LDH release; also recorded: able to protect PC12-α-Syn cells from MPP^+ neurotoxicity in a dose-dependent manner”. The “protective effect against MPP+ toxicity on GIRK2-positive/TH-positive neurons” value (from here on “protective effect against MPP+ toxicity”) in series [2] (primary VM culture) was “significant protective effect”. The “survival of TH and TH/GIRK2 double-labeled neurons against MPP+ toxicity” value in series [2] (primary VMDA culture, NT3 at 17 ng/ml, MPP+ 10 μM) is reported as “protects the cells against MPP^+ toxicity”. Also, the entries for the “LDH release (cell death) in MPP+ treated DAN cells” value in series [3] and in series [3] (listed as NT3) were “significant dose-dependent reduction in LDH release” and “protective effect”, respectively.
As to “cholecysokinin-8 (DYMGWMDF; ends and bridges not checked; UniProt P06307 96-103, looked up) [CCK-8, neuropeptide elevated in A10 dopaminergic neurons]”, the “LDH release … neuroprotective effect” value in series [1] is listed as “Significant dose-dependent reductions in LDH release; also recorded: dose-dependent neuroprotective effects”.
Turning to Fibroblast growth factor 1 [FGF1], the “LDH release (cell death) induced by MPP+ toxicity; protection by FGF1” value in series [1] (PC12-αSyn cells, FIG. 2D) is “significantly reduced; also recorded: able to protect PC12-αSyn cells from MPP^+ in a dose-dependent manner”.
Regarding “Vasoactive intestinal peptide (HSDAVFTDNYTRLRKQMAVKKYLNSILN; ends and bridges not checked; UniProt P01282 125-152, looked up) [VIP, neuropeptide elevated in A10 dopaminergic neurons]”, the “LDH release … neuroprotective effect” value in series [1] is reported as “Significant dose-dependent reductions in LDH release; also recorded: dose-dependent neuroprotective effects”. For the same molecule, the “neuroprotective effect in primary VM culture (TH and GIRK2 immunostaining)” value in series [2] (48 hours after 10 μM MPP+, 10^−6 M VIP) was “neuroprotective effect”. Also, the “protective effect against MPP+ toxicity” value in series [2] (primary VM culture) is listed as “significant protective effect”.
Consider `COC(=O)C[C@H](NC(=O)OC(C)(C)C)C(=O)CF` [BAF, reference compound], for which, in series [1] (PC12-αSyn cells pretreated), the “MPP+ susceptibility (LDH release) after pretreatment with neuroprotective agent” value is “significantly decreased”.
Regarding `C[n+]1ccc(-c2ccccc2)cc1` [MPP^+, 1-methyl-4-phenylpyridinium, reference compound], the “LDH release in PC12-αSyn cells compared with naive PC12 cells” value in series [1] (intermediate concentration (2.5 mM) of MPP+) is “significantly higher LDH release”. Further, the “vulnerability of TH-positive/GIRK2-positive versus TH-positive/GIRK2-negative cells” value in series [2] (primary VM culture, MPP+ 0.1 to 10 μM at day 5 for 48 hours) is reported as “more vulnerable”. In addition, the “dose of MPP+ giving maximal toxic insult (LDH release)” value in series [3] (DAN cells) is listed as 2.5 mM.
Consider “gastrin releasing peptide (VPLPAGGGTVLTKMYPRGNHWAVGHLM; ends and bridges not checked; UniProt P07492 24-50, looked up) [GRP, neuropeptide elevated in A10 dopaminergic neurons]”, for which, in series [1], the “LDH release … neuroprotective effect” value was “Significant dose-dependent reductions in LDH release; also recorded: dose-dependent neuroprotective effects”. The “protective effect against MPP+ toxicity” value in series [2] (primary VM culture) is “significant protective effect”.
For `NCCc1cc(O)c(O)cc1O` [6-OHDA, 6-hydroxydopamine], the “loss of dopaminergic fibers in the striatum and neuronal cell bodies in the substantia nigra” value in series [4] is “progressive degeneration of dopaminergic neuronal cell bodies”.
